Measured values published in patent US20260138961A1, “MODULATORS OF MITOCHONDRIAL DNA REPLICATION” (Pretzel Therapeutics, Inc., priority 2022, published 2026).

Biological target: T1, POLγ W748S + E1143G (Homo sapiens, UniProt P54098, E1143G/W748S)
T1 sequence (P54098 1-1239 W748S/E1143G): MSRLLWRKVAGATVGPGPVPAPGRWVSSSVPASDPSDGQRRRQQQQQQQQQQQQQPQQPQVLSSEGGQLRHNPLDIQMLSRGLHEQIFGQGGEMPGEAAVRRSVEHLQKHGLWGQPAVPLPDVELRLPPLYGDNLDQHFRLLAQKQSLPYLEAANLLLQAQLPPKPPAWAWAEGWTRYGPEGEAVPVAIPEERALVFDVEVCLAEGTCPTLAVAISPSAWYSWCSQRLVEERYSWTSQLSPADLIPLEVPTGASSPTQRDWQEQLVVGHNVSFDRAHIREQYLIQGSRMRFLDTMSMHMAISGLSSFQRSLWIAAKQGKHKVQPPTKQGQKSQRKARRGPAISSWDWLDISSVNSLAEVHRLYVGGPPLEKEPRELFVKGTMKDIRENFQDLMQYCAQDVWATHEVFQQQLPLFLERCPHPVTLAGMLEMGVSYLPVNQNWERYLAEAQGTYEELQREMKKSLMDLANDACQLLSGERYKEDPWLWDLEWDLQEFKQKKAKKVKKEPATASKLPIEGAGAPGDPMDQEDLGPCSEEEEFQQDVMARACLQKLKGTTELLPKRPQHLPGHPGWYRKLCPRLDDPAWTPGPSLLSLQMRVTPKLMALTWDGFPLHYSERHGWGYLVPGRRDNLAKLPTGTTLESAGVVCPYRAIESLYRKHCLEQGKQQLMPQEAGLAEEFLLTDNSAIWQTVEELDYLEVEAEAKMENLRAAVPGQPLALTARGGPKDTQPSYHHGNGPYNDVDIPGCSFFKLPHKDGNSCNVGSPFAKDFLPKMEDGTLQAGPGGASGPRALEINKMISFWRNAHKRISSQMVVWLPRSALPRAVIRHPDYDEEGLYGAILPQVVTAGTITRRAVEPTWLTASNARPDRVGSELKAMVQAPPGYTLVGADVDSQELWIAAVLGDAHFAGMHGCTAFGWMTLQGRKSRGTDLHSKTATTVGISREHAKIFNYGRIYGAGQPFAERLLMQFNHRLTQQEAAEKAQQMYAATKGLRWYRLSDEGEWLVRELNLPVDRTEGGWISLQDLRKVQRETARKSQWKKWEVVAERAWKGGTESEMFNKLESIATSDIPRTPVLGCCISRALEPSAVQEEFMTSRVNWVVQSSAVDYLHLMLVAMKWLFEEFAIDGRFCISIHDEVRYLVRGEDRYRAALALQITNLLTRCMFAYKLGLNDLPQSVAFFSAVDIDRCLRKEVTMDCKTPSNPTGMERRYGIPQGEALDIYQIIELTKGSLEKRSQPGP
T1 sequence (Q9UHN1 1-485 partner): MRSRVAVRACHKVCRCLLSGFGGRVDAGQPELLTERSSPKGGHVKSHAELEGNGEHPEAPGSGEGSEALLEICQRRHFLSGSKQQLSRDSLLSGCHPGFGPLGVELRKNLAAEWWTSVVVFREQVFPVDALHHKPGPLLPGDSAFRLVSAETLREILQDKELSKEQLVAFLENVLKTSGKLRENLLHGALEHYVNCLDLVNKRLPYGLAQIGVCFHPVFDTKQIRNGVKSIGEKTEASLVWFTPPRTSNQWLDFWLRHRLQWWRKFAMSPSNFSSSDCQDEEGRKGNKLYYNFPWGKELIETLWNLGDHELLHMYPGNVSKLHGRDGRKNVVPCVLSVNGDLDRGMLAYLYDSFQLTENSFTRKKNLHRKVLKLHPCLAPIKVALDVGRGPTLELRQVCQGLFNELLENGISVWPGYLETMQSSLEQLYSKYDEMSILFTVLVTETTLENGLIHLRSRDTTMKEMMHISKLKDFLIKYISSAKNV
Experiment: DNA polymerization assay, W748S + E1143G mutant
Assay type: biochemical
Settings: stimulation of polymerase activity, primed M13mp18 ssDNA, 37° C. 2 hours

Row | SMILES | AC50
1 | Cc1cc(S(=O)(=O)Nc2csc(-c3ccccc3)n2)c(C)cc1Cl [Example 81, 4-chloro-2,5-dimethyl-N-(2-phenylthiazol-4-yl)benzenesulfonamide] | 700 nM
2 | Cc1csc(-c2ccccc2NS(=O)(=O)c2cc(C)c(Cl)cc2C)n1 [Example 80, 4-chloro-2,5-dimethyl-N-(2-(4-methylthiazol-2-yl)phenyl)benzenesulfonamide] | > 100000 nM
3 | Cc1cc(S(=O)(=O)Nc2csc(-c3ccnn3C)n2)c(C)cc1Cl [Example 182, 4-chloro-2,5-dimethyl-N-(2-(1-methyl-1H-pyrazol-5-yl)thiazol-4-yl)benzenesulfonamide] | 1000 nM

Next, values leading:

Row | AC50 | SMILES
4 | 5000 nM | Cc1cc(S(=O)(=O)Nc2cccc(-c3ncc(CN(C)C)s3)c2)c(C)cc1Cl [Example 87, 4-chloro-N-(3-(5-((dimethylamino)methyl)thiazol-2-yl)phenyl)-2,5-dimethylbenzenesulfonamide]
5 | 800 nM | Cc1cc(S(=O)(=O)Nc2cccc(-c3ncc(CO)s3)c2)c(C)cc1Cl [Example 89, 4-chloro-N-(3-(5-(hydroxymethyl)thiazol-2-yl)phenyl)-2,5-dimethylbenzenesulfonamide]
6 | 6000 nM | Cc1cc(S(=O)(=O)Nc2cccc(-c3ncc(C4CC4)s3)c2)c(C)cc1Cl [Example 76, 4-chloro-N-(3-(5-cyclopropylthiazol-2-yl)phenyl)-2,5-dimethylbenzenesulfonamide]
